According to patent publication US20240174641A1, “HETEROCYCLIC COMPOUNDS CAPABLE OF […]” (Boehringer Ingelheim International GmbH, priority 2022, published 2024):

Tested on: dog STING (dSTING)
Assay: Dog differential scanning fluorimetry (DSF) assay, thermal shift of dog STING protein
Format: binding
Settings: DSF (dDSF); 100 μM compound, 3 μM dog STING protein; Tm with ligand minus Tm of protein alone
Source text: The protein used for the biophysical experiments was a recombinant dog STING protein comprising its cytosolic cGAMP binding ectodomain. A codon optimized DNA sequence (for expression in Escherichia coli) encoding amino acid residues 149 to 375 of dog STING was synthesized by GeneArt (Regensburg, Germany) and inserted into a pET17b E. coli expression vector. The protein construct encodes an N-terminal 8×His-tag followed by tobacco etch virus protease (TEV) cleavage site and the above STING gene sequence. The resulting protein sequence for the used dog STING protein (SEQ ID No. 1) is listed below:
For expression of the above recombinant dog STING, the construct was transformed into E. coli BL21 DE3 strain and grown in shake flasks in LB-medium at 15° C. Expression was induced by addition of isopropyl β-D-1-thiogalactopyranoside to a final concentration of 1 mM and cultures shaken overnight. Cell pellets were centrifuged and stored at −70° C. until further use. Protein was purified by cell thawing in lysis buffer (20 mM TRIS-HCl, pH 8, 500 mM NaCl, 1 mM DTT, 0.5 mg/ml lysozyme, Complete Protease Inhibitor (Roche) and DNase (Roche)), followed by metal affinity purification using Ni-NTA resins and elution buffer consisting of 20 mM TRIS-HCl, pH 8, 500 mM NaCl, 1 mM DTT, 300 mM imidazole. Cleavage of the His-Tag using TEV-protease took place during dialysis in size exclusion buffer (20 mM TRIS-HCl, pH 8, 100 mM NaCl, 1 mM DTT) over night. To further purify the target protein a reverse Nickel affinity column was used and the flow through was applied to a size exclusion chromatography. The peak fraction was collected and concentrated to 5 mg/mL.
Dye fluorescence is quenched in aqueous environment and increases upon association of the dye with the hydrophobic parts of the unfolding protein. […] The inflection point of the curve represents the “melting” temperature of the protein (Tm) which is calculated numerically using the Boltzmann equation.
The thermal stability of the dog STING protein was measured in assay buffer containing 20 mM Tris, 150 mM NaCl at pH7.5. The assay uses 384-Well qPCR Plates (Catalog #781358, BRAND), Microseal® ‘B’ Adhesive Seals for PCR Plates (Catalog #MSB-1001, BIO-RAD) and was run on a CFX384 Real-Time System (Bio-Rad). A DMSO stock solution of SYPRO orange (SIGMA 55692-500UL) was prepared. Compound stock solutions (10 mM in DMSO) were diluted 1:2 in DMSO to an intermediate compound concentration of 5 mM and then further diluted 1:40 in assay buffer resulting in a compound concentration of 125 μM and 2.5% DMSO. Fluorescent dye stock solution (5000×SYPRO Orange) was then mixed with target protein and buffer to a concentration of 15 μM Protein and 25×SYPRO Orange. 2 μl of this protein-dye-mixture was added to 8 μl compound solution. Final volume was 10 μL. 3-6 well positions were used as negative control (protein with 2% DMSO). The plates were prepared for duplicate measurement and centrifuged for 2 min at 1000 g. In the measurement, 160 cycles of 0.5° C. were used (temperature ramp 15 s/cycle, 15° C. to 95° C.).
Final Assay concentrations for compound characterization were 100 μM compound, 3 μM target protein, 5×SYPRO Orange, and 2% DMSO in 10 μl. All dispensing steps were performed using a HamiltonStar pipetting robot (Hamilton).
Dissociation curves were processed in Bio-Rad CFX Manager. Peak type was set to “negative”. Compound codes for screen were assigned in the plate layout.
Two replicates of TM measurements were averaged, and the standard deviation was calculated. In cases of SD>1.5° C. the measurement was repeated.
The melting point (Tm) obtained for STING protein alone was subtracted from T obtained for protein incubated with ligand to generate ΔTm values.

| SMILES | Delta TM |
| --- | --- |
| Cc1cccc2c(-c3c(F)cc(F)c4nn(C)cc34)nn(-c3ccc(N4CC5CCC4CC5C(=O)O)nc3)c12 (single isomer, unassigned) [Example 48-1] | 23.9 °C |
| CC(=O)N1CCN(c2ccc(-n3nc(-c4cc(F)cc5nn(C)cc45)c4cccc(C)c43)cn2)CC1 [Example 40, 1-[4-(5-{6″-fluoro-2″,7-dimethyl-1H,2″H-[3,4″-biindazol]-1-yl}pyridin-2-yl)piperazin-1-yl]ethan-1-one] | 17.8 °C |
| Cc1cccc2c(-c3c(F)ccc4nn(C)cc34)nn(-c3ccc(N4CC5CCC4CC5C(=O)O)nc3)c12 (single isomer, unassigned) [Example 28-2] | 25.9 °C |
| Cc1cccc2c(-c3cc(F)cc4nn(C)cc34)nn(-c3ccc(N4CCO[C@H](CC(=O)O)C4)nc3)c12 [Example 37-1, 2-[(2R)-4-(5-{6″-fluoro-2″,7-dimethyl-1H,2″H-[3,4″-biindazol]-1-yl}pyridin-2-yl)morpholin-2-yl]acetic acid] | 16.0 °C |
| CC(=O)N1CCN(c2ccc(-n3nc(-c4c(F)cc(F)c5nn(C)cc45)c4ccc(F)c(C)c43)cn2)CC1 [Example 71, 1-[4-(5-{5″,6,7″-trifluoro-2″,7-dimethyl-1H,2″H-[3,4″-biindazol]-1-yl}pyridin-2-yl)piperazin-1-yl]ethan-1-one] | 31.3 °C |
| Cc1c(F)ccc2c(-c3c(F)cc(F)c4nn(C)cc34)nn(-c3ccc(N4C[C@@H]5[C@H](C4)[C@H]5C(=O)O)nc3)c12 [Example 69, (1R,5S,6S)-3-(5-{5″,6,7″-trifluoro-2″,7-dimethyl-1H,2″H-[3,4″-biindazol]-1-yl}pyridin-2-yl)-3-azabicyclo[3.1.0]hexane-6-carboxylic acid] | 35.0 °C |
| Cc1cccc2c(-c3cccc4nn(C)c(F)c34)nn(-c3ccc(N4C[C@@H]5C[C@H]4C[C@H]5C(=O)O)nc3)c12 (racemic) [Example 19, 2-(5-{3″-fluoro-2″,7-dimethyl-1H,2″H-[3,4″-biindazol]-1-yl}pyridin-2-yl)-2-azabicyclo[2.2.1]heptane-5-carboxylic acid] | 34.3 °C |
| Cc1cccc2c(-c3ccc(F)c4nn(C)c(F)c34)nn(-c3ccc(N4C[C@@H]5C[C@H]4C[C@H]5C(=O)O)nc3)c12 (single isomer, unassigned) [Example 56-1] | 33.0 °C |
| Cc1cccc2c(-c3cc(F)cc4nn(C)cc34)nn(-c3ccc(N4C[C@H]5C[C@@H]4C[C@@H]5C(=O)O)nc3)c12 (single isomer, unassigned) [Example 38-2] | 23.0 °C |
| CC(=O)N1C[C@H]2C[C@@H]1CN2c1ccc(-n2nc(-c3cc(F)cc4nn(C)cc34)c3cccc(C)c32)cn1 [Example 42, 1-[(1R,4R)-5-(5-{6″-fluoro-2″,7-dimethyl-1H,2″H-[3,4″-biindazol]-1-yl}pyridin-2-yl)-2,5-diazabicyclo[2.2.1]heptan-2-yl]ethan-1-one] | 15.8 °C |
| CC(=O)N1C[C@@H]2C[C@H]1CN2c1ccc(-n2nc(-c3c(F)cc(F)c4nn(C)cc34)c3cccc(C)c32)cn1 [Example 50, 1-[(1S,4S)-5-(5-{5″,7″-difluoro-2″,7-dimethyl-1H,2″H-[3,4″-biindazol]-1-yl}pyridin-2-yl)-2,5-diazabicyclo[2.2.1]heptan-2-yl]ethan-1-one] | 25.0 °C |
| Cc1cccc2c(-c3c(F)ccc4nn(C)cc34)nn(-c3ccc(N4CCOC(CC(=O)O)C4)nc3)c12 [Example 26-1, 2-[(2R)-4-(5-{5″-fluoro-2″,7-dimethyl-1H,2″H-[3,4″-biindazol]-1-yl}pyridin-2-yl)morpholin-2-yl]acetic acid] | 31.0 °C |
| Cc1cccc2c(-c3c(F)ccc4nn(C)cc34)nn(-c3ccc(N4CCOC(CC(=O)O)C4)nc3)c12 [Example 26-2, 2-[(2S)-4-(5-{5″-fluoro-2″,7-dimethyl-1H,2″H-[3,4″-biindazol]-1-yl}pyridin-2-yl)morpholin-2-yl]acetic acid] | 32.0 °C |
